Test results taken from PubChem BioAssay (NCI).
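Protocol summary: plate cells (96-well), add compound at 5 concentrations, incubate 48 h, interpolate endpoints linearly. Abbreviation: GI50, concentration required for 50% inhibition of growth. The concentration for full growth arrest is given as TGI.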

How the values were obtained:
Experiment in all cases: NCI-60 cell line screen, 48 h
786-0 renal = test system: 786-0 renal
A498 renal = test system: A498 renal
A549 NSCLC = test system: A549 NSCLC
ACHN renal = test system: ACHN renal
BT-549 breast = test system: BT-549 breast
CAKI-1 renal = test system: CAKI-1 renal
CCRF-CEM leukemia = test system: CCRF-CEM leukemia
COLO 205 colon = test system: COLO 205 colon
DU-145 prostate = test system: DU-145 prostate
EKVX NSCLC = test system: EKVX NSCLC
HCC-2998 colon = test system: HCC-2998 colon
HCT-116 colon = test system: HCT-116 colon
HCT-15 colon = test system: HCT-15 colon
HL-60(TB) leukemia = test system: HL-60(TB) leukemia
HOP-62 NSCLC = test system: HOP-62 NSCLC
HOP-92 NSCLC = test system: HOP-92 NSCLC
HS 578T breast = test system: HS 578T breast
IGROV1 ovarian = test system: IGROV1 ovarian
K-562 leukemia = test system: K-562 leukemia
KM12 colon = test system: KM12 colon
LOX IMVI melanoma = test system: LOX IMVI melanoma
M14 melanoma = test system: M14 melanoma
MCF7 breast = test system: MCF7 breast
MDA-MB-231 breast = test system: MDA-MB-231 breast
MDA-MB-435 = test system: MDA-MB-435
MOLT-4 leukemia = test system: MOLT-4 leukemia
NCI-H226 lung = test system: NCI-H226 lung
NCI-H23 lung = test system: NCI-H23 lung
NCI-H460 lung = test system: NCI-H460 lung
NCI-H522 lung = test system: NCI-H522 lung
NCI/ADR-RES ovarian = test system: NCI/ADR-RES ovarian
OVCAR-3 ovarian = test system: OVCAR-3 ovarian
OVCAR-5 ovarian = test system: OVCAR-5 ovarian
OVCAR-8 ovarian = test system: OVCAR-8 ovarian
PC-3 prostate = test system: PC-3 prostate
RPMI-8226 leukemia = test system: RPMI-8226 leukemia
RXF 393 renal = test system: RXF 393 renal
SF-268 CNS = test system: SF-268 CNS
SF-295 CNS = test system: SF-295 CNS
SF-539 CNS = test system: SF-539 CNS
SK-MEL-2 melanoma = test system: SK-MEL-2 melanoma
SK-MEL-28 melanoma = test system: SK-MEL-28 melanoma
SK-MEL-5 melanoma = test system: SK-MEL-5 melanoma
SK-OV-3 ovarian = test system: SK-OV-3 ovarian
SN12C renal = test system: SN12C renal
SNB-19 CNS = test system: SNB-19 CNS
SNB-75 CNS = test system: SNB-75 CNS
SR leukemia = test system: SR leukemia
SW-620 colon = test system: SW-620 colon
T-47D breast = test system: T-47D breast
TK-10 renal = test system: TK-10 renal
U251 CNS = test system: U251 CNS
UACC-257 melanoma = test system: UACC-257 melanoma
UACC-62 melanoma = test system: UACC-62 melanoma
UO-31 renal = test system: UO-31 renal

O=c1cccc(C#CC#C[C@H]2O[C@@H]2CO)o1
GI50 (786-0 renal): 0.637 µM | TGI (786-0 renal): 1.54 µM | GI50 (A498 renal): 2.03 µM | TGI (A498 renal): 4.34 µM | GI50 (A549 NSCLC): 1.77 µM | TGI (A549 NSCLC): 3.64 µM | GI50 (ACHN renal): 0.322 µM | TGI (ACHN renal): 0.985 µM | GI50 (BT-549 breast): 1.19 µM | TGI (BT-549 breast): 3.02 µM | GI50 (CAKI-1 renal): 0.189 µM | TGI (CAKI-1 renal): 0.359 µM | GI50 (CCRF-CEM leukemia): 0.17 µM | TGI (CCRF-CEM leukemia): 0.431 µM | GI50 (COLO 205 colon): 0.665 µM | TGI (COLO 205 colon): 1.58 µM | GI50 (DU-145 prostate): 1.56 µM | TGI (DU-145 prostate): 3.24 µM | GI50 (EKVX NSCLC): 1.97 µM | TGI (EKVX NSCLC): 4.18 µM | GI50 (HCC-2998 colon): 0.788 µM | TGI (HCC-2998 colon): 2.19 µM | GI50 (HCT-116 colon): 0.638 µM | GI50 (HCT-15 colon): 0.353 µM | TGI (HCT-15 colon): 1.29 µM | GI50 (HL-60(TB) leukemia): 1.47 µM | TGI (HL-60(TB) leukemia): > 100 µM | GI50 (HOP-62 NSCLC): 0.423 µM | TGI (HOP-62 NSCLC): 1.54 µM | GI50 (HOP-92 NSCLC): 0.285 µM | TGI (HOP-92 NSCLC): 0.531 µM | GI50 (HS 578T breast): 2.91 µM | TGI (HS 578T breast): 9.69 µM | GI50 (IGROV1 ovarian): 0.624 µM | TGI (IGROV1 ovarian): 1.85 µM | GI50 (K-562 leukemia): 0.182 µM | TGI (K-562 leukemia): > 100 µM | GI50 (KM12 colon): 0.986 µM | TGI (KM12 colon): 3.47 µM | GI50 (LOX IMVI melanoma): 0.31 µM | TGI (LOX IMVI melanoma): 0.901 µM | GI50 (M14 melanoma): 1.23 µM | GI50 (MCF7 breast): 0.472 µM | TGI (MCF7 breast): 4.28 µM | GI50 (MDA-MB-231 breast): 0.419 µM | TGI (MDA-MB-231 breast): 1.02 µM | GI50 (MDA-MB-435): 0.474 µM | TGI (MDA-MB-435): 1.21 µM | GI50 (MOLT-4 leukemia): 0.154 µM | TGI (MOLT-4 leukemia): > 100 µM | GI50 (NCI-H226 lung): 0.309 µM | TGI (NCI-H226 lung): 1.11 µM | GI50 (NCI-H23 lung): 0.347 µM | TGI (NCI-H23 lung): 1.21 µM | GI50 (NCI-H460 lung): 1.08 µM | TGI (NCI-H460 lung): 6.74 µM | GI50 (NCI-H522 lung): 3.56 µM | TGI (NCI-H522 lung): > 100 µM | GI50 (NCI/ADR-RES ovarian): 0.927 µM | TGI (NCI/ADR-RES ovarian): 3.37 µM | GI50 (OVCAR-3 ovarian): 0.286 µM | TGI (OVCAR-3 ovarian): 0.689 µM | GI50 (OVCAR-5 ovarian): 1.73 µM | TGI (OVCAR-5 ovarian): 3.57 µM | GI50 (OVCAR-8 ovarian): 0.341 µM | TGI (OVCAR-8 ovarian): 1.43 µM | GI50 (PC-3 prostate): 0.664 µM | TGI (PC-3 prostate): 2.01 µM | GI50 (RPMI-8226 leukemia): 0.101 µM | TGI (RPMI-8226 leukemia): 0.331 µM | GI50 (RXF 393 renal): 0.448 µM | TGI (RXF 393 renal): 1.74 µM | GI50 (SF-268 CNS): 2.49 µM | TGI (SF-268 CNS): 7.51 µM | GI50 (SF-295 CNS): 1.7 µM | TGI (SF-295 CNS): 3.77 µM | GI50 (SF-539 CNS): 1.07 µM | TGI (SF-539 CNS): 2.84 µM | GI50 (SK-MEL-2 melanoma): 5.53 µM | TGI (SK-MEL-2 melanoma): > 21 µM | GI50 (SK-MEL-28 melanoma): 0.37 µM | TGI (SK-MEL-28 melanoma): 1.71 µM | GI50 (SK-MEL-5 melanoma): 1.5 µM | TGI (SK-MEL-5 melanoma): 2.95 µM | GI50 (SK-OV-3 ovarian): 2.66 µM | TGI (SK-OV-3 ovarian): 7.18 µM | GI50 (SN12C renal): 0.149 µM | TGI (SN12C renal): 0.333 µM | GI50 (SNB-19 CNS): 6.24 µM | TGI (SNB-19 CNS): 14.4 µM | GI50 (SNB-75 CNS): 1.89 µM | TGI (SNB-75 CNS): 3.52 µM | GI50 (SR leukemia): 0.24 µM | TGI (SR leukemia): > 100 µM | GI50 (SW-620 colon): 0.238 µM | TGI (SW-620 colon): 0.596 µM | GI50 (T-47D breast): 0.401 µM | TGI (T-47D breast): 1.47 µM | GI50 (TK-10 renal): 0.495 µM | TGI (TK-10 renal): 1.93 µM | GI50 (U251 CNS): 0.355 µM | TGI (U251 CNS): 0.958 µM | GI50 (UACC-257 melanoma): 1.16 µM | TGI (UACC-257 melanoma): 2.91 µM | GI50 (UACC-62 melanoma): 0.209 µM | TGI (UACC-62 melanoma): 0.531 µM | GI50 (UO-31 renal): 2.59 µM | TGI (UO-31 renal): 6.29 µM
